Experimental data as given in US10407398B2, “Inhibitors of Pseudomonas aeruginosa LecB” (priority 2015, dated 2019).

Key:
[1] = biological target: T1, LecBPAO1 (Pseudomonas aeruginosa, UniProt Q9HYN5); test: biochemical; assay type: binding
T1 construct: made in house

[2] = biological target: T2, LecBPA14 (Pseudomonas aeruginosa, UniProt A0A0H2ZE85); test: biochemical; assay type: binding, Pseudomonas aeruginosa UCBPP-PA14
Protocol: The measured intensities were reduced by buffer values and fluorescence polarization was calculated. The data were analyzed using BMG Labtech MARS software and/or with Graphpad Prism and fitted according to the four parameter variable slope model. […] A minimum of three independent measurements of triplicates each was performed for every ligand.

[3] = biological target: T2, LecBPA14; test: biochemical; assay type: binding, Pseudomonas aeruginosa UCBPP-PA14; conditions: for N: ITC binding stoichiometry, one site binding model; for N / ΔG / ΔH / −TΔS: LecBPA14; for ΔG / ΔH / −TΔS: ITC, 25° C.
Protocol: (§1) The temperature of the sample cell was 25° C. The titration was performed with a solution of ligands in the same buffer.

[4] = biological target: T1, LecBPAO1; test: Microcalorimetric assay (ITC) for direct binding; conditions: for N: ITC binding stoichiometry, one site binding model; for N / ΔG / ΔH / −TΔS: LecBPAO1; for ΔG / ΔH / −TΔS: ITC, 25° C.
Protocol: as §1

[5] = biological target: LecB (Pseudomonas aeruginosa, UniProt Q9HYN5); conditions: background art; cited from earlier work
Sequence of LecB (Q9HYN5 entry or part of it): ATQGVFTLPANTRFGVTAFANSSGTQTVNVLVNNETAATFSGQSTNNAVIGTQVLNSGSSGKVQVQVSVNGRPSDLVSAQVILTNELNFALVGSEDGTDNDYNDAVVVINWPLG

T2 sequence (A0A0H2ZE85 entry or part of it): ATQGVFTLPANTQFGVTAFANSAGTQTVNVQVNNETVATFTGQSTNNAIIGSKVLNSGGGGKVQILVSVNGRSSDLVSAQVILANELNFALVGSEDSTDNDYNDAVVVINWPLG
T1 sequence (Q9HYN5 entry or part of it): as the sequence (Q9HYN5 entry or part of it) above

Structure (SMILES): CC1O[C@H](CNC(=O)/C=C/c2ccccc2)C(O)C(O)[C@@H]1O (stereo partly shown) [drawing 111]
- IC50 [1]: 4210 ± 940 nM
- IC50 [2]: 2490 ± 200 nM

Structure (SMILES): CC1O[C@H](CNS(=O)(=O)c2ccc(Br)s2)C(O)C(O)[C@@H]1O (stereo partly shown)
- IC50 [1]: 3200 ± 370 nM
- IC50 [2]: 620 ± 390 nM

Structure (SMILES): CCC1(O)C(O)COC(C)[C@H]1O (stereo partly drawn) [1-deoxy-3(S)—C-(ethyl)-L-fucose]
- IC50 [1]: 471000 ± 104000 nM
- IC50 [2]: 41500 ± 9940 nM

Structure (SMILES): CC1OCC(O)C(O)[C@@H]1O (stereo partly drawn) [drawing 115, 1-deoxy-L-fucose, reference compound]
- Kd [3]: 453 ± 120 nM
- N [3]: 0.94 ± 0.04
- ΔG [3]: -8.68 ± 0.153 kcal/mol
- ΔH [3]: -7.58 ± 0.261 kcal/mol
- −TΔS [3]: -1.1 ± 0.399 kcal/mol
- Kd [4]: 773 ± 110 nM
- N [4]: 1.07 ± 0.03
- ΔG [4]: -8.34 ± 0.0837 kcal/mol
- ΔH [4]: -8.68 ± 0.217 kcal/mol
- −TΔS [4]: 0.327 ± 0.272 kcal/mol

Structure (SMILES): CC1O[C@H](CNS(=O)(=O)c2cccs2)C(O)C(O)[C@@H]1O (stereo partly shown)
- N [3]: 0.87 ± 0.08
- ΔG [3]: -8.91 ± 0.0693 kcal/mol
- ΔH [3]: -12 ± 0.617 kcal/mol
- −TΔS [3]: 3.04 ± 0.645 kcal/mol
- N [4]: 0.92 ± 0.05
- ΔH [4]: -11.5 ± 0.0956 kcal/mol
- −TΔS [4]: 3.2 ± 0.0335 kcal/mol

Structure (SMILES): CCCC[C@@]1(O)C(C)OCC(O)C1O (stereo partly shown) [drawing 117]
- Kd [3]: 246 ± 47 nM
- N [3]: 1.03 ± 0.08
- ΔG [3]: -9.01 ± 0.115 kcal/mol
- ΔH [3]: -9.42 ± 0.0096 kcal/mol
- −TΔS [3]: 0.394 ± 0.117 kcal/mol
- Kd [4]: 401 ± 84 nM
- N [4]: 1.02 ± 0.09
- ΔG [4]: -8.75 ± 0.0956 kcal/mol
- ΔH [4]: -11.3 ± 0.12 kcal/mol
- −TΔS [4]: 2.51 ± 0.186 kcal/mol

Structure (SMILES): Cc1cc(C)c(S(=O)(=O)NC[C@H]2OC(C)[C@@H](O)C(O)C2O)c(C)c1 (stereo partly shown) [drawing 119]
- Kd [3]: 310 ± 50 nM
- N [3]: 0.98 ± 0.05
- ΔG [3]: -8.87 ± 0.105 kcal/mol
- ΔH [3]: -9.03 ± 0.88 kcal/mol
- −TΔS [3]: 0.155 ± 0.774 kcal/mol
- Kd [4]: 1270 ± 120 nM
- N [4]: 0.99 ± 0.04
- ΔG [4]: -8.03 ± 0.0574 kcal/mol
- ΔH [4]: -8.41 ± 0.0096 kcal/mol
- −TΔS [4]: 0.363 ± 0.0502 kcal/mol

Structure (SMILES): CC1OCC(O)C(C)(O)[C@@H]1O (stereo partly drawn) [1-deoxy-3(S)—C-(methyl)-L-fucose]
- IC50 [1]: 49600 ± 7800 nM
- IC50 [2]: 6540 ± 1340 nM

Structure (SMILES): CC1OCC(O)C(O)(C(F)(F)F)[C@@H]1O (stereo partly drawn) [1-deoxy-3(S)—C-(trifluoromethyl)-L-fucose]
- IC50 [1]: > 600000 nM
- IC50 [2]: > 300000 nM

Structure (SMILES): Cc1ccc(S(=O)(=O)NC[C@H]2OC(C)[C@@H](O)C(O)C2O)s1 (stereo partly shown)
- IC50 [1]: 3490 ± 210 nM
- IC50 [2]: 650 ± 350 nM

Structure (SMILES): CC1OCC(O)C(O)(CNS(=O)(=O)C(C)C)[C@@H]1O (stereo partly drawn) [1-deoxy-3(S)—C-(isopropylsulfonamidomethyl)-L-fucose]
- IC50 [1]: > 600000 nM
- IC50 [2]: 286000 ± 77000 nM

Structure (SMILES): Cc1cc(S(=O)(=O)NC[C@H]2OC(C)[C@@H](O)C(O)C2O)c(C)s1 (stereo partly shown)
- N [3]: 0.98 ± 0.06
- ΔH [3]: -9.66 ± 0.265 kcal/mol
- −TΔS [3]: 0.786 ± 0.402 kcal/mol
- N [4]: 0.98 ± 0.03
- ΔH [4]: -11.3 ± 0.287 kcal/mol
- −TΔS [4]: 3.23 ± 0.33 kcal/mol

Structure (SMILES): CC1O[C@H](CNC(=O)c2cc3ccccc3o2)C(O)C(O)[C@@H]1O (stereo partly shown)
- IC50 [1]: 10200 ± 860 nM
- IC50 [2]: 2560 ± 330 nM

Structure (SMILES): CC(=O)N[C@H]1C(O)O[C@H](CO)[C@@H](O[C@@H]2O[C@@H](C)[C@@H](O)[C@@H](O)[C@@H]2O)[C@@H]1O[C@@H]1O[C@H](CO)[C@H](O)[C@H](O)[C@H]1O (stereo partly drawn) [Lewis^a trisaccharide, α-Fuc1-4((βGal1-3)-GlcNAc]
- Kd [5]: 210 nM

Structure (SMILES): Cc1cc(C)c(S(=O)(=O)NC[C@H]2OC(C)[C@@H](O)C(O)C2O)c(C)c1 (stereo partly shown) [drawing 93]
- IC50 [1]: 980 ± 60 nM
- IC50 [2]: 420 ± 200 nM

Structure (SMILES): CCC[C@@]1(O)C(C)OCC(O)C1O (stereo partly drawn) [1-deoxy-4(S)—C-(propyl) L-fucose]
- IC50 [1]: 660 ± 90 nM
- IC50 [2]: 230 ± 50 nM

Structure (SMILES): CC1OCC(O)C(O)[C@@]1(O)C1CCCCC1 (stereo partly drawn) [1-deoxy-4(S)—C-(cyclohexyl) L-fucose]
- IC50 [1]: 2590 ± 90 nM
- IC50 [2]: 750 ± 130 nM

Structure (SMILES): CC1O[C@H](CNC(=O)/C=C/c2ccccc2)C(O)C(O)[C@@H]1O (stereo partly shown) [drawing 118]
- Kd [3]: 2590 ± 390 nM
- N [3]: 1.07 ± 0.05
- ΔG [3]: -7.29 ± 0.523 kcal/mol
- ΔH [3]: -7.5 ± 0.344 kcal/mol
- −TΔS [3]: 0.21 ± 0.239 kcal/mol
- Kd [4]: 3090 ± 840 nM
- N [4]: 0.93 ± 0.01
- ΔG [4]: -7.53 ± 0.165 kcal/mol
- ΔH [4]: -7.86 ± 0.394 kcal/mol
- −TΔS [4]: 0.327 ± 0.32 kcal/mol

Structure (SMILES): CC[C@@]1(O)C(C)OCC(O)C1O (stereo partly drawn) [drawing 82, 1-deoxy-4(S)—C-(ethyl) L-fucose]
- IC50 [1]: 390 ± 60 nM
- IC50 [2]: 140 ± 30 nM

Structure (SMILES): CC[C@@]1(O)C(C)OCC(O)C1O (stereo partly shown) [drawing 116]
- Kd [3]: 130 ± 49 nM
- N [3]: 0.96 ± 0.04
- ΔG [3]: -9.42 ± 0.208 kcal/mol
- ΔH [3]: -10 ± 0.277 kcal/mol
- −TΔS [3]: 0.619 ± 0.263 kcal/mol
- Kd [4]: 201 ± 42 nM
- N [4]: 1.03 ± 0.13
- ΔG [4]: -9.13 ± 0.129 kcal/mol
- ΔH [4]: -12.4 ± 1.09 kcal/mol
- −TΔS [4]: 3.2 ± 1.12 kcal/mol

Structure (SMILES): Cc1csc(S(=O)(=O)NC[C@H]2OC(C)[C@@H](O)C(O)C2O)c1 (stereo partly shown)
- IC50 [1]: 2510 ± 540 nM
- IC50 [2]: 310 ± 40 nM

Structure (SMILES): CCCCCC[C@@]1(O)C(C)OCC(O)C1O (stereo partly drawn) [1-deoxy-4(S)—C-(hexyl) L-fucose]
- IC50 [1]: 610 ± 90 nM
- IC50 [2]: 330 ± 160 nM

Structure (SMILES): CC1O[C@H](CNS(=O)(=O)c2ccsc2)C(O)C(O)[C@@H]1O (stereo partly shown)
- IC50 [1]: 1850 ± 130 nM
- IC50 [2]: 640 ± 270 nM

Structure (SMILES): CC1OCC(O)C(O)[C@@]1(O)CC#N (stereo partly drawn) [1-deoxy-4(S)—C-(cyanomethyl) L-fucose]
- IC50 [1]: 1690 ± 150 nM
- IC50 [2]: 580 ± 110 nM

Structure (SMILES): CC1OCC(O)C(O)[C@@]1(O)c1ccccc1 (stereo partly drawn) [1-deoxy-4(S)—C-(phenyl) L-fucose]
- IC50 [1]: 4970 ± 360 nM
- IC50 [2]: 1480 ± 80 nM

Structure (SMILES): CC1OCC(O)C(O)(CN)[C@@H]1O (stereo partly drawn) [1-deoxy-3(S)—C-(aminomethyl)-L-fucose]
- IC50 [1]: > 600000 nM
- IC50 [2]: > 300000 nM

Structure (SMILES): CC1OCC(O)C(O)[C@]1(C)O (stereo partly drawn) [1-deoxy-4(S)—C-(methyl) L-fucose]
- IC50 [1]: 460 ± 70 nM
- IC50 [2]: 170 ± 30 nM

Structure (SMILES): CC1OCC(O)C(O)[C@@]1(O)CCNS(C)(=O)=O (stereo partly drawn) [1-deoxy-4(R)—C-(ethylmethylsulfonamide) L-fucose]
- IC50 [1]: 440 ± 70 nM
- IC50 [2]: 150 ± 20 nM

Structure (SMILES): CC(C)C(=O)NCC1(O)C(O)COC(C)[C@H]1O (stereo partly drawn) [1-deoxy-3(S)—C-(isobutyrylamidomethyl)-L-fucose]
- IC50 [1]: 348000 ± 65000 nM
- IC50 [2]: 62600 ± 12400 nM

Structure (SMILES): CC(C)CC[C@@]1(O)C(C)OCC(O)C1O (stereo partly drawn) [1-deoxy-4(S)—C-(isopentyl) L-fucose]
- IC50 [1]: 780 ± 90 nM
- IC50 [2]: 450 ± 120 nM

Structure (SMILES): CC1OCC(O)C(O)[C@@]1(O)Cc1ccccc1 (stereo partly drawn) [1-deoxy-4(S)—C-(benzyl) L-fucose]
- IC50 [1]: 2610 ± 20 nM
- IC50 [2]: 620 ± 80 nM

Structure (SMILES): CC1O[C@H](CNS(=O)(=O)c2ccn(C)n2)C(O)C(O)[C@@H]1O (stereo partly shown)
- IC50 [1]: 6790 ± 1810 nM
- IC50 [2]: 700 ± 30 nM

Structure (SMILES): Cc1cc(S(=O)(=O)NC[C@H]2OC(C)[C@@H](O)C(O)C2O)c(C(F)(F)F)o1 (stereo partly shown)
- IC50 [1]: 3880 ± 700 nM
- IC50 [2]: 490 ± 110 nM

Structure (SMILES): CC1O[C@H](CNC(=O)c2ccccc2)C(O)C(O)[C@@H]1O (stereo partly shown)
- IC50 [1]: 8730 ± 600 nM

Structure (SMILES): CCc1ccc(S(=O)(=O)NC[C@H]2OC(C)[C@@H](O)C(O)C2O)s1 (stereo partly shown)
- IC50 [1]: 4220 ± 1130 nM
- IC50 [2]: 440 ± 40 nM

Structure (SMILES): CC(=O)NCC[C@@]1(O)C(C)OCC(O)C1O (stereo partly drawn) [1-deoxy-4(R)—C-(ethylacetamide) L-fucose]
- IC50 [1]: 520 ± 30 nM
- IC50 [2]: 180 ± 20 nM

Structure (SMILES): CC1OCC(O)C(O)[C@@H]1O (stereo partly drawn) [drawing 74, 1-deoxy-L-fucose, reference compound]
- IC50 [1]: 1550 ± 500 nM
- IC50 [2]: 600 ± 140 nM

Structure (SMILES): CC1O[C@H](CNS(=O)(=O)c2cn(C)cn2)C(O)C(O)[C@@H]1O (stereo partly shown)
- IC50 [1]: 14200 ± 3570 nM
- IC50 [2]: 1860 ± 230 nM

Structure (SMILES): CCCC[C@@]1(O)C(C)OCC(O)C1O (stereo partly drawn) [drawing 84, 1-deoxy-4(S)—C-(butyl) L-fucose]
- IC50 [1]: 650 ± 10 nM
- IC50 [2]: 230 ± 30 nM

Structure (SMILES): CC1O[C@H](CNS(=O)(=O)c2ccco2)C(O)C(O)[C@@H]1O (stereo partly shown)
- IC50 [1]: 3480 ± 750 nM
- IC50 [2]: 480 ± 10 nM
